Earlier results, collected in patent US20130096316A1, “Novel Method for Preparation of Bisnorcymerine and Salts Thereof” (QR PHARMA, INC., priority 2011, published 2013).

Target: human BChE (Homo sapiens, UniProt P06276)
Conditions: ratio of the AChE IC50 to the BChE IC50; cited from Yu et al., 1999

Sequence of human BChE (P06276 29-602): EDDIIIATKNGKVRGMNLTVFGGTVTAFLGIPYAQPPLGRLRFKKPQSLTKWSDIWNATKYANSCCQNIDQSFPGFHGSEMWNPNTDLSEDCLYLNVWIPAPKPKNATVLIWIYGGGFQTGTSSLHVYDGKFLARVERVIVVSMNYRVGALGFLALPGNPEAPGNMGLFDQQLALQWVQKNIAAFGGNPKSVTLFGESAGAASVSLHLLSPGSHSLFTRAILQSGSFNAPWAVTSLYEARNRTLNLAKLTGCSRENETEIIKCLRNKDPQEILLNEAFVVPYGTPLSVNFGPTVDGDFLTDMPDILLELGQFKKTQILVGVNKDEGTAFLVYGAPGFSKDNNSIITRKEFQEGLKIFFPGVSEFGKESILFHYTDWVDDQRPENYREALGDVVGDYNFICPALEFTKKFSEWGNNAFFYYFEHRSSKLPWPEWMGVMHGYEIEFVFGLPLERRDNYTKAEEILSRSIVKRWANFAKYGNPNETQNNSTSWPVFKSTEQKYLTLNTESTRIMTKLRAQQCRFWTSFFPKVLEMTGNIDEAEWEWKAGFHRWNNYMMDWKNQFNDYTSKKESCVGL

SMILES: CC(C)c1ccc(NC(=O)Oc2ccc3c(c2)[C@]2(C)CCNC2N3)cc1 (stereo partly drawn) [Compound 1, (3aS)-3a-methyl-1,2,3,3a,8,8a-hexahydropyrrolo[2,3-b]indol-5-yl (4-isopropylphenyl)carbamate]
- selectivity for inhibition of BChE as compared to AChE: 110 fold
